According to US20110305784A1, “Fractionated products obtained from gamboge resin, and medical uses of the same” (priority 2010, published 2011):
Values after ≈ are worked out from the molar mass of the structure shown. Where two headings read alike, the source gives them in different places.

Columns and labels:
in vitro = conditions: human
Excerpt: (§1) The in vitro anti-cancer test was primarily used to detect the effect of a candidate drug on cancer cell proliferation. The working principle involved therein is the ability of viable cells to shift alamarBlue (AbD Serotec, UK) from its originally non-fluorescent oxidized state (non-fluorescent, blue) to a reduced form (fluorescent, red) having fluorescence via metabolic reaction. According to the fluorescent data result generated by the alamarBlue reagent thus obtained, the proliferation of the viable cells and cell activity can be quantified for detection.
(§2) In the in vitro anti-cancer tests, a candidate drug was tested at 5 different concentrations of 0.01, 0.1, 1, 10, and 100 μg/ml, and six human cancer cell lines and a normal human cell line were used (see Table 10).

[1] = system: Human breast adenocarcinoma cell MCF7; experiment: cells; conditions: for CC50: MCF7, read-out: LC50 (50% lethal concentration)
Excerpt: as §1, §2

[2] = system: Human colon adenocarcinoma cell HT-29; experiment: cells; conditions: for CC50: HT-29, read-out: LC50 (50% lethal concentration)
Excerpt: as §1, §2

[3] = system: Human hepatocellular carcinoma cell HepG2; experiment: cells; conditions: for CC50: HepG2, read-out: LC50 (50% lethal concentration)
Excerpt: as §1, §2

[4] = system: Human histocytic lymphoma cell U937; experiment: cells; conditions: for CC50: U-937, read-out: LC50 (50% lethal concentration)
Excerpt: as §1, §2

[5] = system: Human lung carcinoma cell A549; experiment: cells; conditions: for CC50: A549, read-out: LC50 (50% lethal concentration)
Excerpt: as §1, §2

[6] = system: Human promyelocytic leukemia cell HL-60; experiment: cells; conditions: for CC50: HL-60, read-out: LC50 (50% lethal concentration)
Excerpt: as §1, §2

[7] = system: Human umbilical venal epithelial cell (HUVEC); experiment: cells; conditions: HUVEC; for IC50: Homo sapiens
Excerpt: as §1, §2

[8] = MCF7, read-out: IC50 (50% inhibition concentration)
[9] = HT-29, read-out: IC50 (50% inhibition concentration)
[10] = HepG2, read-out: IC50 (50% inhibition concentration)
[11] = U-937, read-out: IC50 (50% inhibition concentration)
[12] = A549, read-out: IC50 (50% inhibition concentration)
[13] = HL-60, read-out: IC50 (50% inhibition concentration)
[14] = read-out: IC50 (50% inhibition concentration)

Compound | CC50 [1] [mg/L] | CC50 [2] [mg/L] | CC50 [3] [mg/L] | CC50 [4] [mg/L] | CC50 [5] [mg/L] | IC50 [6, 13] [mg/L] | CC50 [6] [mg/L] | LC50 (50% lethal concentration) [7] [mg/L] | other results
C=C(C)C1CC[C@@]2(C)Oc3c(CC=C(C)C)c4c(c(O)c3[C@@H]1C2O)C(=O)C1=C[C@@H]2CC3C(C)(C)OC(C/C=C(/C)C(=O)O)(C2=O)[C@@]13O4 (stereo partly drawn) [Gh-1050, 3α-hydroxygambogellic acid] | 1 (≈ 1.55 µM) | 7.7 (≈ 11.9 µM) | 3.8 (≈ 5.89 µM) | 2.3 (≈ 3.57 µM) | 0.74 (≈ 1.15 µM) | 0.17 (≈ 0.264 µM) | 7 (≈ 10.9 µM) |  | CC50 (in vitro): 3.4 mg/L (≈ 5.27 µM); IC50 [1, 8]: 0.14 mg/L (≈ 0.217 µM); IC50 [2, 9]: 4.8 mg/L (≈ 7.44 µM); IC50 [3, 10]: 1.1 mg/L (≈ 1.71 µM); IC50 [4, 11]: 0.21 mg/L (≈ 0.326 µM); IC50 [5, 12]: 0.13 mg/L (≈ 0.202 µM); IC50 [7, 14]: 0.78 mg/L (≈ 1.21 µM)
CC(C)=CCC[C@]1(C)C=Cc2c(O)c3c(c(CC=C(C)C)c2O1)O[C@]12C(=C[C@@H]4CC1C(C)(C)O[C@]2(C/C=C(\C)C(=O)O)C4=O)C3=O [Gh-1641, isogambogic acid] |  |  |  |  | 3 (≈ 4.77 µM) | 8 (≈ 12.7 µM) |  | 1.3 (≈ 2.07 µM) | 
CC(C)=CCc1c2c(c(O)c3c1O[C@]14C(=C[C@@H]5CC1C(C)(C)O[C@]4(C/C=C(\C)C=O)C5=O)C3=O)C=CC(C)(C)O2 [Gh-2501, isomorellin] |  | 4 (≈ 7.34 µM) |  |  |  | 1 (≈ 1.84 µM) | 4 (≈ 7.34 µM) | 1.8 (≈ 3.3 µM) | IC50 [4, 11]: 0.9 mg/L (≈ 1.65 µM)
CC(C)=CCc1c2c(c(O)c3c1O[C@@]1(C)CCC4C3C1C4(C)C)C(=O)C1=C[C@@H]3CC4C(C)(C)O[C@](C/C=C(/C)C(=O)O)(C3=O)[C@@]14O2 [Gh-2607-1A, epiformoxanthone B] |  |  |  |  |  |  |  | 1.5 (≈ 2.39 µM) | 
CC(C)=CCC/C(C)=C/Cc1c(O)c(CC=C(C)C)c2c(c1O)C(=O)C1=C[C@@H]3CC4C(C)(C)OC(CC=C(C)C)(C3=O)[C@@]14O2 [Gh-4301, desoxygambogenin] |  |  |  | > 100 |  |  | > 100 | 1.3 (≈ 2.16 µM) | 
CC(C)=CCC[C@@]1(C)C=Cc2c(O)c3c(c(CC=C(C)C)c2O1)O[C@]12C(=C[C@@H]4CC1C(C)(C)O[C@]2(C/C=C(\C)C(=O)O)C4=O)C3=O [Gh-1642, epiisogambogic acid] |  |  |  |  |  | 6 (≈ 9.54 µM) |  | 1.3 (≈ 2.07 µM) | 
CC(C)=CCc1c2c(c(O)c3c1O[C@]14C(=C[C@@H]5CC1C(C)(C)OC4(C/C=C(/C)C(=O)O)C5=O)C3=O)C=C[C@@](C)(CCC(O)C(C)(C)O)O2 (stereo partly drawn) [Gh-3261, formoxanthone J] | 2.8 (≈ 4.22 µM) | 3.9 (≈ 5.88 µM) | 2.8 (≈ 4.22 µM) | 0.31 (≈ 0.468 µM) | 0.5 (≈ 0.754 µM) |  | 7 (≈ 10.6 µM) |  | CC50 (in vitro): 1.4 mg/L (≈ 2.11 µM)
CC(C)=CCC/C(C)=C/Cc1c(O)c(CC=C(C)C)c2c(c1O)C(=O)C1=C[C@@H]3CC4C(C)(C)O[C@](C/C=C(/C)C(=O)O)(C3=O)[C@@]14O2 [Gh-2505, gambogenic acid] |  |  |  |  |  |  |  | 2.3 (≈ 3.65 µM) | 
C=C(C)[C@@H]1CC[C@@]2(C)CC1c1c(O)c3c(c(CC=C(C)C)c1O2)O[C@]12C(=C[C@@H]4CC1C(C)(C)O[C@]2(C/C=C(/C)C(=O)O)C4=O)C3=O [Gh-2603-1, epigambogellic acid] | 4.2 (≈ 6.68 µM) | 3.7 (≈ 5.88 µM) | 3.3 (≈ 5.25 µM) | 3.1 (≈ 4.93 µM) | 0.34 (≈ 0.541 µM) | 1 (≈ 1.59 µM) | 2.9 (≈ 4.61 µM) |  | IC50 [1, 8]: 2.2 mg/L (≈ 3.5 µM); IC50 [2, 9]: 1.6 mg/L (≈ 2.54 µM); IC50 [3, 10]: 1 mg/L (≈ 1.59 µM); IC50 [4, 11]: 1.3 mg/L (≈ 2.07 µM); IC50 [5, 12]: 0.036 mg/L (≈ 0.0573 µM); IC50 [7, 14]: 0.26 mg/L (≈ 0.414 µM)
CC(C)=CCC[C@@]1(C)C=Cc2c(O)c3c(c(CC=C(C)C)c2O1)O[C@]12C(=C[C@@H]4CC1C(C)(C)O[C@]2(C/C=C(/C)C(=O)O)C4=O)C3=O [Gh-2606, epigambogic acid] |  | 2 (≈ 3.18 µM) | 3 (≈ 4.77 µM) |  |  |  |  | 1.4 (≈ 2.23 µM) | IC50 [5, 12]: 0.1 mg/L (≈ 0.159 µM)
CC(C)=CCC[C@]1(C)C=Cc2c(O)c3c(c(CC=C(C)C)c2O1)O[C@]12C(=C[C@@H]4CC1C(C)(C)O[C@]2(C/C=C(/CO)C(=O)O)C4=O)C3=O [Gh-1601-A, 30-hydroxygambogic acid] | 4.4 (≈ 6.82 µM) | 0.77 (≈ 1.19 µM) | 4.1 (≈ 6.36 µM) | 0.28 (≈ 0.434 µM) | 6.6 (≈ 10.2 µM) |  | 3 (≈ 4.65 µM) |  | IC50 ([1]; MCF7, read-out: IC50 (50% inhibition concentration), MCF-7): 0.72 mg/L (≈ 1.12 µM); IC50 ([2]; HT-29, read-out: IC50 (50% inhibition concentration), HT-29): 0.17 mg/L (≈ 0.264 µM); IC50 ([3]; HepG2, read-out: IC50 (50% inhibition concentration), HepG2): 1.3 mg/L (≈ 2.02 µM); IC50 ([4]; U-937, read-out: IC50 (50% inhibition concentration), U937): 0.09 mg/L (≈ 0.14 µM); IC50 ([5]; A549, read-out: IC50 (50% inhibition concentration), A549): 0.11 mg/L (≈ 0.171 µM); IC50 ([6]; HL-60, read-out: IC50 (50% inhibition concentration), HL-60): 0.56 mg/L (≈ 0.869 µM); IC50 ([7]; read-out: IC50 (50% inhibition concentration), HUVEC): 0.19 mg/L (≈ 0.295 µM)
